The assay relates to Vaccinia virus. Kind of assay: Antiviral activity against Vaccinia virus-induced cytopathogenicity at 16 ug/mL. It is filed as functional, organism-based. Particulars: Orthopoxvirus vaccinia.

Structures are written as SMILES. Calls of active or inactive are those of the source. The rule behind the calls is not given here.

Regarding `Cc1ccc(-n2c(-c3cc(-c4ccc(F)cc4F)ccc3O)n[nH]c2=S)cc1`, the result was Active.

The record behind these values is ChEMBL document CHEMBL1147969, “Synthesis of some novel heterocyclic compounds derived from diflunisal hydrazide as potential anti-infective and anti-inflammatory agents” (2007).
